Converted amounts (≈) assume the structure as drawn.
Tests used:
F-actin = target: T1, F-actin (Oryctolagus cuniculus, UniProt P68135); test: SAXS of F-actin / hen egg white lysozyme bundles; assay type: binding, rabbit
T1 construct: prepared from a lyophilized powder of rabbit skeletal muscle; purchased Cytoskeleton, Inc. (Denver, Col.); host or cells: rabbit skeletal muscle (tissue-derived)
Protocol: Monomeric G-actin (MW 42,000) was prepared from a lyophilized powder of rabbit skeletal muscle purchased from Cytoskeleton, Inc. (Denver, Col.). The non-polymerizing G-actin solution contained a 5 mM TRIS buffer at pH 8.0, with 0.2 mM CaCl2, 0.5 mM ATP, and 0.2 mM DTT and 0.01% NaN3. G-actin (2 mg/ml) was polymerized into F-actin (linear charge density λA˜−1 e /2.5 Å at pH 7) upon the addition of salt (100 mM KCl). Human plasma gelsolin (Cytoskeleton, Inc., Denver, Col.) was used to control the average F-actin length between 0.1 μm to 10 μm. The filaments were treated with phalloidin (Sigma Aldrich, St. Louis, Mo., MW 789.2) to prevent actin depolymerization and resuspended to a final concentration of ˜26.67 mg/ml using Millipore (Billerica, Mass.) H2O (18.2MΩ). Hen Egg White Lysozyme (MW 14,300, Sigma Aldrich, St. Louis, Mo.) was dissolved in Millipore H2O (18.2MΩ) to a final concentration ˜25 mg/ml. Lysozyme carries a pH dependent charge of +9 or +10 and has dimensions of approximately ˜26Å×26Å×45 Å.
The F-actin—lysozyme isoelectric point is found at a concentration ratio of ˜2.5:1 F-actin:lysozyme. X-ray samples were prepared at various F-actin:lysozyme concentration ratios on either side of the isoelectric point, including 2:1, 2.5:1, 3:1, and 5:1. […]

Calf thymus (CT) DNA = test: SAXS of DNA + tobramycin (+ cationic lipid) suspensions; assay type: binding
Source text: For our studies of the sequestration of aminoglycoside antibiotics by model CF sputum and subsequent release by the administration of surfactants we used the following materials. The aminoglycoside antibiotic used in our experiments was Tobramycin (Sigma Aldrich), commonly used to treat infections of Pseudomonas aeruginosa in CF patients. […] For the DNA+tobramycin experiments we used Calf thymus (CT) DNA (USB Corp. Cleveland Ohio), purified it using standard techniques, and resuspended it in an aqueous solution of 100 mM NaCl 5 mM Tris and 5 mM PIPES adjusted to pH 7. DNA has a charge of approximately −2/base pair.
Surfactant materials used in the present experiments were a mixture of two lipids DOTAP (1,2-Dioleoyl-3-Trimethylammonium-Propane) and DOPE (1,2-Dioleoyl-sn-Glycero-3-Phosphoethanolamine) (Avanti Polar lipids, Alabaster Al.) in mass ratios of about 70:30 and about 25:75. DOTAP is a cationic lipid (charge of +1) with no curvature, and DOPE is a neutral lipid with negative curvature. Briefly, the lipids were first dissolved in chloroform, then dried under nitrogen and redissolved in an aqueous solution. The aqueous salt solution was then sonicated to form unilamellar lipid vescicles, and filtered through 0.2 micron pores.
Aminoglycoside antibiotic sequestration by negatively charged bio-polymers in respiratory mucous of CF patients was measured via two techniques. The first method was to use x-ray diffraction techniques to discern the structure of suspensions of mixtures of biopolymers and antibiotic. Specific x-ray diffraction studies were done to determine the structure of mixtures of the DNA with tobramycin and the lipid mixture. The isoelectric DNA-lipid-monovalent salt solutions were sealed in 1.5 mm quartz capillaries (Hilgenberg GmbH; Malsfeld, Germany) and mixed thoroughly by centrifugation. The approximate sample volume in the capillary was 30 μl-60 μl. SAXS experiments were performed as described previously. Tobramycin has charge of approximately +5 at physiological pH, whereas DNA is negatively charged, thus when the ratio of net DNA charge is approximately equal to the net tobramycin charge (T/D˜1), the tobramycin condenses the DNA. The resulting structure is a bundle of DNA. The structures observed via x-ray diffraction indicate whether or not the tobramycin is sequestered with the DNA or free in suspension. The present invention uses positively charged lipids to replace the tobramycin in these bundles, thereby increasing the efficacy of the antibiotic. Consequently, our experiments used a fixed DNA concentration of 3 mg/ml (x-ray experiments) and a varied concentration of tobramycin and/or lipid. Concentrations are varied such that the ratio of positive to negative charges is known. Similar x-ray diffraction studies can be conducted wherein mucin, instead of DNA, is the sequestration agent to examine mucin+tobramycin+lipid complexes and kinetics.

[1] = system: Pseudomonas aeruginosa (PA01); test: Bacterial killing assay, tobramycin with or without mucin; assay type: cell-based
Protocol: Tobramycin sequestration was also measured via bacteriological killing assays. In these bacterial killing assay experiments Pseudomonas aeruginosa (PA01), the primary bacteria responsible for infection in CF patients, was incubated in the presence of mucin, DNA, tobramycin, lipid or various mixtures of these four materials. Killing assays were performed in the following manner: PA01 was grown in cation adjusted Mueller-Hinton media to a concentration greater than 5×10^8, sedimented by centrifugation and resuspended in a buffered solution of 5 mM Tris 5 mM PIPES and 100 mM NaCl at pH 7.2. A quantity of […]. of PAO1 were incubated for 3.5 hours in the buffered salt solution with varied concentrations of tobramycin, DNA, mucin, and lipids. The mucin concentrations were either 0 mg/ml (control) or 10 mg/ml which is near the physiologically measured concentrations of mucin. Lipids added to the bacterial solution were added in varying concentrations in order to determine the amount needed to release tobramycin from its strong interaction with mucin and/or DNA. The bacterial solution was serially diluted and plated on MH-agar plates. Plates were incubated overnight and the number of bacterial colonies counted.

Compound: lysozyme: Hen Egg White Lysozyme (MW 14,300, Sigma Aldrich)
- NaCl concentration up to which the F-actin-lysozyme close pack bundling peak increases (F-actin): ~150 mM
- salt concentration above which the lysozyme-actin bundling peak disappears (F-actin; NaCl): above 200 mM

Compound: NC[C@H]1O[C@H](O[C@H]2[C@H](O)[C@@H](O[C@H]3O[C@H](CO)[C@@H](O)[C@H](N)[C@H]3O)[C@H](N)C[C@@H]2N)[C@H](N)C[C@@H]1O [tobramycin]
- ratio of tobramycin charge to DNA charge (T/D) at which bundled DNA peak appears (Calf thymus (CT) DNA; DNA 3 mg/ml, pH 7): ~1
- tobramycin concentration at which bundled DNA peak appears (Calf thymus (CT) DNA; DNA 3 mg/ml, pH 7): 1.9 mM
- preference of interaction, DNA versus F-actin (Calf thymus (CT) DNA; F-actin 5 mg/ml + DNA 1 mg/ml + tobramycin): preferentially interacts with DNA over F-actin
- sequestration of tobramycin by DNA at raised lipid concentration (Calf thymus (CT) DNA; T/D approaching 1, L/D=2): again unsequestered by the DNA
- sequestration of tobramycin by DNA without lipid (Calf thymus (CT) DNA; T/D=0.5 and T/D=0.9, absence of lipids): sequestered by DNA
- sequestration of tobramycin by DNA with cationic lipid (Calf thymus (CT) DNA; lipid concentration greater than or equal to that required for DNA charge neutralization): not sequestered
- tobramycin concentration until which mucin inhibits killing ability ([1]; 10 mg/ml mucin): 20 × the minimal inhibitory concentration (MIC)
- MIC ([1]; Pseudomonas aeruginosa, 3.5 hours, 5 mM Tris 5 mM PIPES 100 mM NaCl pH 7.2, read-out: minimal inhibitory concentration (MIC)): ~5 µg/mL (≈ 10.7 µM)
- biological accessibility, fraction of the available dose ([1]; sequestration by anionic polyelectrolytes of CF sputum): 1/20

From patent US20080118489A1, “Charge-Modified Lysozyme Antimicrobial Compositions, Surfactants, and Methods for Infections and Cystic Fibrosis” (priority 2005, published 2008)
